# According to ChEMBL document CHEMBL4477276, “Synthesis and aromatase inhibitory evaluation of 4-N-nitrophenyl substituted amino-4H-1,2,4-triazole derivatives” (Bioorg Med Chem, 2016):
# Molecular target: T1, Aromatase (Homo sapiens, UniProt P11511)
# T1 sequence (P11511 whole entry): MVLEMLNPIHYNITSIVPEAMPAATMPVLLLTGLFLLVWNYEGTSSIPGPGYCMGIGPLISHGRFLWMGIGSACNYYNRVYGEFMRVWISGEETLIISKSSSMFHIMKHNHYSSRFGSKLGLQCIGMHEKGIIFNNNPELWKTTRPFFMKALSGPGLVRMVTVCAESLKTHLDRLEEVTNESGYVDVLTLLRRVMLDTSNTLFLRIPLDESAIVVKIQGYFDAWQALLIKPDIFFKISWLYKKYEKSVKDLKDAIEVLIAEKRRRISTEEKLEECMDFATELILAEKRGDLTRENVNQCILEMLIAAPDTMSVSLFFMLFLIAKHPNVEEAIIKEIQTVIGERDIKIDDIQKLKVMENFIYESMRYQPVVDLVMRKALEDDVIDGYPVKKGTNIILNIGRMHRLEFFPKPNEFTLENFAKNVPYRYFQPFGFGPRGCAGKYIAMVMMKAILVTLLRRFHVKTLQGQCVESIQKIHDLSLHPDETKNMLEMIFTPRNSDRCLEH
# Assay: Inhibition of recombinant human aromatase using 7-methoxy-trifluoromethylcoumarin as substrate incubated for 30 mins by fluorescence microplate reader analysis
row,SMILES,IC50 [nM]
1,O=[N+]([O-])c1cccc(CN(c2ccc([N+](=O)[O-])c(-c3ccccc3)c2)n2cnnc2)c1,19.7
2,O=[N+]([O-])c1ccc(N(Cc2ccc(C(F)(F)F)cc2)n2cnnc2)cc1Br,43.6
3,O=[N+]([O-])c1ccc(N(Cc2ccccc2)n2cnnc2)cc1-c1ccccc1,30.2
4,O=[N+]([O-])c1cccc(CN(c2ccc([N+](=O)[O-])c(Br)c2)n2cnnc2)c1,12.1
5,N#Cc1cccc(CN(c2ccc([N+](=O)[O-])c(Br)c2)n2cnnc2)c1,57.6
6,O=[N+]([O-])c1ccc(N(Cc2ccccc2)n2cnnc2)cc1Br,39.8
7,O=[N+]([O-])c1ccc(N(Cc2cccc(C(F)(F)F)c2)n2cnnc2)cc1Br,17.4
8,O=[N+]([O-])c1ccc(N(Cc2ccc(Cl)cc2)n2cnnc2)cc1Br,9.02
9,O=[N+]([O-])c1ccc(N(Cc2ccc(C(F)(F)F)cc2)n2cnnc2)cc1-c1ccccc1,14.5
10,O=[N+]([O-])c1ccc(Nn2cnnc2)cc1Br,90.7
11,N#Cc1ccccc1CN(c1ccc([N+](=O)[O-])c(Br)c1)n1cnnc1,58.8
12,O=[N+]([O-])c1ccc(N(Cc2cccc(C(F)(F)F)c2)n2cnnc2)cc1-c1ccccc1,17.4
13,N#Cc1cccc(CN(c2ccc([N+](=O)[O-])c(-c3ccccc3)c2)n2cnnc2)c1,73.2
